Patent US9073940B2, “Tricyclic pyrazol amine derivatives” (MERCK SERONO SA, priority 2009, dated 2015)
Counter-ions that a name gives are not always drawn.

System: 4 PI3K isoforms (Human recombinant GST-PI3K)
Assay: PI3K scintillation proximity assay, best IC50 obtained with the four isoforms (alpha, beta, delta, gamma)
Type: biochemical
Conditions: best IC50 obtained with the four isoforms of PI3K; read-out: Best potency measured on the 4 PI3K isoforms

Row | SMILES | IC50 [nM]
1 | CC(C)(C)C1CCC(n2nc(C(=O)N3CCOCC3)c3c2-c2ccccc2S(=O)(=O)C3)CC1 (stereo not drawn) [Example 94, 1-(4-tert-Butylcyclohexyl)-3-(morpholin-4-ylcarbonyl)-1,4-dihydrothiochromeno[4,3-c]pyrazole 5,5-dioxide] | 4120
2 | CCC1c2c(C(=O)N3CCOCC3)nn(-c3ccccc3)c2-c2ccccc2S1(=O)=O (stereo not drawn) [Example 59, 4-ethyl-3-(morpholin-4-ylcarbonyl)-1-phenyl-1,4-dihydrothiochromeno[4,3-c]pyrazole 5,5-dioxide] | 2470
3 | O=C(c1nn([C@H]2CCCN(Cc3ccncc3)C2)c2c1CS(=O)(=O)c1ccccc1-2)N1CCOCC1 (stereo in doubt) [Example 473, 3-(morpholin-4-ylcarbonyl)-1-[1-(pyridin-4-ylmethyl)piperidin-3-yl]-1,4-dihydrothiochromeno[4,3-c]pyrazole 5,5-dioxide] | 45
4 | O=C(c1nn(C2CCCN(CCO)C2)c2c1CS(=O)(=O)c1ccccc1-2)N1CCOCC1 (stereo not drawn) [Example 134, 2-{3-[3-(Morpholin-4-ylcarbonyl)-5,5-dioxidothiochromeno[4,3-c]pyrazol-1 (4H)-yl]piperidin-1-yl}ethanol] | 815
5 | O=C(c1nn(-c2cccc(Nc3ccccc3)c2)c2c1CS(=O)(=O)c1ccccc1-2)N1CCOCC1 [Example 166, {3-[3-(Morpholin-4-ylcarbonyl)-5,5-dioxidothiochromeno[4,3-c]pyrazol-1 (4H)-yl]phenyl}phenylamine] | 2700
6 | O=C(c1nn([C@H]2CCCN(CCN3CC[C@@H](F)C3)C2)c2c1CS(=O)(=O)c1ccccc1-2)N1CCOCC1 (single isomer, unassigned) [Example 364, 1-(1-{2-[3-fluoropyrrolidin-1-yl]ethyl}piperidin-3-yl)-3-(morpholin-4-ylcarbonyl)-1,4-dihydrothiochromeno[4,3-c]pyrazole 5,5-dioxide] | 14
7 | O=C(c1cccc(-n2nc(C(=O)N3CCOCC3)c3c2-c2ccccc2S(=O)(=O)C3)c1)N1CCOCC1 [Example 61, 3-(Morpholin-4-ylcarbonyl)-1-[3-(morpholin-4-ylcarbonyl)phenyl]-1,4-dihydrothiochromeno[4,3-c]pyrazole 5,5-dioxide] | 73
8 | COc1cccc(Cn2nc(C(=O)N3CCOCC3)c3c2-c2ccccc2S(=O)(=O)C3)c1 [Example 232, 1-(3-Methoxybenzyl)-3-(morpholin-4-ylcarbonyl)-1,4-dihydrothiochromeno[4,3-c]pyrazole 5,5-dioxide] | 1170
9 | O=C(c1nn(C2CCOCC2)c2c1CS(=O)(=O)c1ccccc1-2)N1CCOCC1 [Example 32, 3-(morpholin-4-ylcarbonyl)-1-(tetrahydro-2H-pyran-4-yl)-1,4-dihydrothiochromeno[4,3-c]pyrazole 5,5-dioxide] | 223
10 | COc1ccc2c(c1)S(=O)(=O)Cc1c(C(=O)N3CCOCC3)nn([C@H]3CCCN(CCC4CCOCC4)C3)c1-2 (single isomer, unassigned) [Example 369] | 27
11 | C[C@@H]1CN(CCN2CCC[C@H](n3nc(C(=O)N4CCOCC4)c4c3-c3ccccc3S(=O)(=O)C4)C2)C[C@H](C)O1 (single isomer, unassigned) [Example 378] | 65
12 | O=C(c1nn(-c2ccccc2)c2c1CS(=O)(=O)c1nccn1-2)N1CCOCC1 [Example 485] | 477
13 | O=C(c1nn(C2CCCN(CCn3ccnc3)C2)c2c1CS(=O)(=O)c1ccccc1-2)N1CCOCC1 (stereo not drawn) [Example 297, 1-{1-[2-(1H-Imidazol-1-yl)ethyl]piperidin-3-yl}-3-(morpholin-4-ylcarbonyl)-1,4-dihydrothiochromeno[4,3-c]pyrazole 5,5-dioxide] | 52
14 | O=C(CC1CCOCC1)N1CCC(n2nc(C(=O)N3CCOCC3)c3c2-c2ccccc2S(=O)(=O)C3)C1 (stereo not drawn) [Example 287, 3-(Morpholin-4-ylcarbonyl)-1-[1-(tetrahydro-2H-pyran-4-ylacetyl)pyrrolidin-3-yl]-1,4-dihydrothiochromeno[4,3-c]pyrazole 5,5-dioxide] | 733
15 | O=C(c1nn([C@@H]2CCCN(CCC3CCOCC3)C2)c2c1CS(=O)(=O)c1c(F)cccc1-2)N1CCOCC1 (single isomer, unassigned) [Example 343, 6-fluoro-3-(morpholin-4-ylcarbonyl)-1-{1-[2-(tetrahydro-2H-pyran-4-yl)ethyl]piperidin-3-yl}-1,4-dihydrothiochromeno[4,3-c]pyrazole 5,5-dioxide hydrochloride salt] | 1920
16 | O=C(Nc1cccnc1)c1cccc(-n2nc(C(=O)N3CCOCC3)c3c2-c2ccccc2S(=O)(=O)C3)c1 [Example 149, 3-[3-(Morpholin-4-ylcarbonyl)-5,5-dioxidothiochromeno[4,3-c]pyrazol-1(4H)-yl]-N-pyridin-3-ylbenzamide] | 926
17 | O=C(c1nn(-c2cccc(CN3CC(F)(F)C3)c2)c2c1CS(=O)(=O)c1ccccc1-2)N1CCOCC1 [Example 261, 1-{3-[(3,3-Difluoroazetidin-1-yl)methyl]phenyl}-3-(morpholin-4-ylcarbonyl)-1,4-dihydrothiochromeno[4,3-c]pyrazole 5,5-dioxide] | 643
18 | O=C(c1nn(C2CCOCC2)c2c1CS(=O)(=O)c1c(F)cccc1-2)N1CCOCC1 [Example 249, 6-Fluoro-3-(morpholin-4-ylcarbonyl)-1-(tetrahydro-2H-pyran-4-yl)-1,4-dihydrothiochromeno[4,3-c]pyrazole 5,5-dioxide] | 1030
19 | CC(C)(C)OC(=O)N1CCCC(n2nc(C(=O)N3CCOCC3)c3c2-c2ccccc2S(=O)(=O)C3)CC1 (stereo not drawn) [Example 257] | 824
20 | O=C(c1nn(-c2cccc(Cn3cccn3)c2)c2c1CS(=O)(=O)c1ccccc1-2)N1CCOCC1 [Example 292, 3-(Morpholin-4-ylcarbonyl)-1-[3-(1H-pyrazol-1-ylmethyl)phenyl]-1,4-dihydrothiochromeno[4,3-c]pyrazole 5,5-dioxide] | 488
21 | O=C(c1nn(C2CCCNCC2)c2c1CS(=O)(=O)c1ccccc1-2)N1CCOCC1 (stereo not drawn) [Example 82] | 1900
22 | O=C(c1cccc(-n2nc(C(=O)N3CCOCC3)c3c2-c2ccccc2S(=O)(=O)C3)c1)N1CCCCC1 [Example 125, 3-(Morpholin-4-ylcarbonyl)-1-[3-(piperidin-1-ylcarbonyl)phenyl]-1,4-dihydrothiochromeno[4,3-c]pyrazole 5,5-dioxide] | 182
23 | Cn1nc(C(=O)N2CCOCC2)c2c1-c1cc(F)ccc1S(=O)(=O)C2 [Example 16, 8-fluoro-1-methyl-3-(morpholin-4-ylcarbonyl)-1,4-dihydrothiochromeno[4,3-c]pyrazole 5,5-dioxide] | 2220
24 | O=C(c1nn(C2CCNC2)c2c1CS(=O)(=O)c1ccccc1-2)N1CCOCC1 (stereo not drawn) [Example 84] | 4640
25 | O=C(c1nn(CC2CCCO2)c2c1CS(=O)(=O)c1ccccc1-2)N1CCOCC1 (stereo not drawn) [Example 45, 3-(morpholin-4-ylcarbonyl)-1-(tetrahydrofuran-2-ylmethyl)-1,4-dihydrothiochromeno[4,3-c]pyrazole 5,5-dioxide] | 1560
26 | O=C(c1nn(-c2ccccc2)c2c1CS(=O)(=O)c1c(Br)cccc1-2)N1CCOCC1 [Example 18] | 494

Same assay, conditions: inhibition at 20 μM

Row | SMILES | Best potency measured on the 4 PI3K isoforms, % inh @20 μM [% inh @20 μM]
27 | CC1CN(C(=O)c2nn(-c3ccccc3)c3c2CS(=O)(=O)c2ccccc2-3)CC(C)O1 (stereo not drawn) [Example 337] | 11
